Source: PubChem BioAssay (NCI)
Where “and” joins values, the source holds several entries; their conditions need not be identical. Equal entries are not always repeated.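 A five-concentration, 48-hour dose response in 96-well plates underlies each endpoint, interpolated linearly between surrounding concentrations. GI50: concentration for 50% inhibition of growth. TGI denotes the concentration required for complete inhibition of growth.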

What was measured:
Assay in all cases: NCI anticancer screen, dose series, 48 h
OVCAR-8 ovarian = tested on: OVCAR-8 ovarian
UACC-257 melanoma = tested on: UACC-257 melanoma
SK-MEL-2 melanoma = tested on: SK-MEL-2 melanoma
HCT-116 colon = tested on: HCT-116 colon
RPMI-8226 leukemia = tested on: RPMI-8226 leukemia
SR leukemia = tested on: SR leukemia
SF-268 CNS = tested on: SF-268 CNS
K-562 leukemia = tested on: K-562 leukemia
OVCAR-4 ovarian = tested on: OVCAR-4 ovarian
SK-MEL-28 melanoma = tested on: SK-MEL-28 melanoma

Row | SMILES | GI50 (OVCAR-8 ovarian) | TGI (OVCAR-8 ovarian) | GI50 (UACC-257 melanoma) | TGI (UACC-257 melanoma) | GI50 (SK-MEL-2 melanoma) | TGI (SK-MEL-2 melanoma) | GI50 (HCT-116 colon) | TGI (HCT-116 colon) | GI50 (RPMI-8226 leukemia) | TGI (RPMI-8226 leukemia) | GI50 (SR leukemia) | TGI (SR leukemia) | GI50 (SF-268 CNS) | TGI (SF-268 CNS) | GI50 (K-562 leukemia) | TGI (K-562 leukemia) | GI50 (OVCAR-4 ovarian) | TGI (OVCAR-4 ovarian) | GI50 (SK-MEL-28 melanoma) | TGI (SK-MEL-28 melanoma)
1 | CCOc1cc(/C=N\Nc2nnc(C)n2N)c(C)cc1N(CCCl)CCCl | 1.34 µM | > 36 µM | 0.396 µM | 3.6 µM | 2.11 µM | 5.33 µM | 0.56 µM | 13.2 µM | 0.0978 µM | 3.01 µM | 0.558 µM | 23.5 µM | 1.97 µM | > 92.6 µM | 0.646 µM | > 100 µM | 0.338 µM | > 68.2 µM | 1.97 µM | 53.8 µM
2 | CCn1c(-c2nonc2N)nc2c(C#CC(C)(C)O)nc(OCCNC)cc21 | 7.81 µM | > 25 µM | 7.96 µM | 24.7 µM | 6.64 µM | 15.4 µM | 7.14 µM | > 21.6 µM | 9.49 µM | > 25 µM | 9.56 µM | > 21.8 µM | 7.94 µM | > 25 µM | 10.3 µM | > 25 µM | 9.89 µM | > 25 µM | 8.49 µM | > 25 µM
3 | COc1ccc2[nH]c(O)c(C(=Nc3ccc(N(C)C(=O)CN4CCN(C)CC4)cc3)c3ccccc3)c2c1 | 3.24 µM | 14 µM | 1.73 µM | 4.08 µM | 2.12 µM | 5.37 µM | 0.562 µM | 8.37 µM | 2.5 µM | 7.53 µM | 0.23 µM | 1.45 µM | 2.1 µM | 7.55 µM | 0.609 µM | 13.8 µM | 2.13 µM | 12.6 µM | 2.11 µM | 6.12 µM
4 | C=CC(=O)Nc1cc2c(Nc3ccc(F)c(Cl)c3)ncnc2cc1OCCCN1CCOCC1 | 1.77 µM and 2.54 µM | 6.67 µM and > 10 µM | 3.42 µM and 9.15 µM | 12.8 µM and > 10 µM | 1.96 µM and 2.17 µM | 3.79 µM and > 6.51 µM | 1.58 µM and 2.35 µM | 3 µM and > 5.9 µM | 1.94 µM and 2.75 µM | 5.17 µM and > 10 µM | 1.72 µM and 2.3 µM | > 21 µM and 6.51 µM | 1.77 µM and 3.47 µM | 5.13 µM and > 10 µM | 1.91 µM and 2.84 µM | 14.5 µM and > 10 µM | 2.61 µM and 2.71 µM | 9.73 µM and > 10 µM | 1.67 µM and > 6.85 µM | 3.21 µM and > 10 µM
5 | COc1ccc(Cn2c3c(cc(OS(=O)(=O)C(F)(F)F)c2=O)Cc2ccccc2-3)cc1 | 9.07 µM | 50 µM and > 100 µM | 5.14 µM | 50 µM and > 100 µM | 14.5 µM | 50 µM and > 100 µM | 3.53 µM | 50 µM and > 100 µM | – | 50 µM | – | 50 µM and 20.1 µM | 8.54 µM | 50 µM and > 100 µM | 5.1 µM | 50 µM and > 100 µM | 9.56 µM | 50 µM and > 100 µM | 22.8 µM | 50 µM and > 100 µM
6 | Cc1ccc2nc(-c3ccc(N(C)C)c(Br)c3)cn2c1 | 17.4 µM | > 100 µM | > 100 µM | > 100 µM | > 100 µM | > 100 µM | 7.13 µM | > 100 µM | 3.93 µM | > 100 µM | 1.46 µM | > 100 µM | 8.09 µM | > 100 µM | 2.93 µM | > 100 µM | > 100 µM | > 100 µM | 10.5 µM | > 100 µM
7 | CCC[n+]1cc2cc(OC)c(OC)cc2c2c1-c1cc3c(cc1C2)OCO3 | 2.18 µM | 6.23 µM | 1.19 µM | 3.87 µM | 2.65 µM | 9.18 µM | 3.39 µM | 23.6 µM | 2.34 µM | 16 µM | 2.18 µM | 26.2 µM | 0.568 µM | 5.84 µM | 3.03 µM | > 20.5 µM | 4.84 µM | 19.2 µM | 3.03 µM | 10.6 µM
8 | CN1C(=O)N(C)C2C1NN=c1s/c(=C\c3ccc(F)cc3)c(=O)n12 (stereo not drawn) | 3.78 µM | > 100 µM | 3.02 µM | > 100 µM | 4.13 µM | > 100 µM | 0.795 µM | > 100 µM | 2.56 µM | 8.91 µM | 0.374 µM | 20 µM | 4.62 µM | > 100 µM | 0.54 µM | > 100 µM | 3.05 µM | > 100 µM | 7.31 µM | > 100 µM
9 | Cc1[nH]nc(C(=O)n2nc(N)c3ccccc32)c1[N+](=O)[O-] | > 100 µM | > 100 µM | > 100 µM | > 100 µM | > 100 µM | > 100 µM | > 100 µM | > 100 µM | > 100 µM | > 100 µM | 26.2 µM | > 100 µM | > 100 µM | > 100 µM | > 100 µM | > 100 µM | > 100 µM | > 100 µM | > 100 µM | > 100 µM
10 | COC(=O)[C@]12CCC(C)[C@H](C)[C@H]1C1=CCC3[C@@]4(C)CC[C@H](OC(C)=O)C(C)(C)C4CC[C@@]3(C)C1(C)C(O)C2 (stereo partly drawn) | – | > 100 µM | – | > 100 µM | – | > 100 µM | – | > 100 µM | – | > 100 µM | – | > 100 µM | – | > 100 µM | – | > 100 µM | – | > 100 µM | – | > 100 µM
11 | CN(C)CCCNC(=O)c1ccc2c(c1)oc1cc3ccccc3c(=O)n12 | 10.1 µM | 24.9 µM | 12.6 µM | 36.8 µM | 9.3 µM | 32.6 µM | 19.3 µM | > 50 µM | 17.1 µM | > 50 µM | 10 µM | 46.6 µM | 16.1 µM | 40 µM | 27.2 µM | > 50 µM | 40.9 µM | > 50 µM | 14.5 µM | 29.3 µM
12 | Cc1cc2c(cc1C)N(C(=O)CCl)CCN2C(=O)CCl | 0.644 µM | 6.13 µM | 1.3 µM | 2.71 µM | 1.81 µM | 4.22 µM | 0.186 µM | 0.409 µM | 0.571 µM | 2.7 µM | 0.421 µM | 2.65 µM | 1.82 µM | 3.89 µM | 0.378 µM | 2 µM | 1.44 µM | 3.37 µM | 1.56 µM | 2.96 µM
13 | C/C(CCc1ccccc1)=N\NC(N)=S | – | > 100 µM | – | > 100 µM | – | > 100 µM | – | > 100 µM | – | > 100 µM | – | > 100 µM | – | > 100 µM | – | > 100 µM | – | > 100 µM | – | > 100 µM
14 | COC(=O)C(CC(=O)Nc1ccc(C)cc1)C(=O)C(=O)Nc1ccccc1C(C)C (stereo not drawn) | – | > 100 µM | – | > 100 µM | – | > 100 µM | – | > 100 µM | – | > 100 µM | – | > 100 µM | – | > 100 µM | – | > 100 µM | – | > 100 µM | – | > 100 µM
15 | Cc1sc2nc3c4ccccc4c(NCCCN(C)C)nn3c(=O)c2c1C | 11 µM | 27.9 µM | 2.22 µM | 4.79 µM | 20 µM | 39.7 µM | 4.03 µM | 12.7 µM | 4.8 µM | 11.7 µM | 1.33 µM | 3.52 µM | 9.66 µM | 24.1 µM | 1.93 µM | 3.9 µM | 12.1 µM | 24.9 µM | 1.73 µM | 3.21 µM
16 | CC(=O)OCC(OC(C)=O)C(OC(C)=O)C(OC(C)=O)C(=O)CNn1c(-c2ccccc2Cl)nc2ccccc2c1=O (stereo not drawn) | – | > 100 µM | – | > 100 µM | – | > 100 µM | – | > 100 µM | – | > 100 µM | – | > 100 µM | – | > 100 µM | – | > 100 µM | – | > 100 µM | – | > 100 µM
17 | O=C1C(c2ccccc2)=[N+]([O-])c2ccccc21 | – | 32.6 µM | – | 26.1 µM | – | 28.3 µM | – | > 100 µM | – | 56.9 µM | – | 23.5 µM | – | 27.4 µM | – | 8.34 µM | – | 15.3 µM | – | 33.2 µM
18 | NC(=O)c1cc2c3ccccc3ccn2c1-c1ccccc1 | 0.0937 µM | 16.4 µM | 11.5 µM | 26.5 µM | 0.883 µM | 40.9 µM | 0.0428 µM | 4.22 µM | 0.0371 µM | 2.31 µM | 0.0933 µM | 3.75 µM | 0.0759 µM | 13.4 µM | 0.12 µM | 11.8 µM | 0.155 µM | > 54.5 µM | 14.7 µM | 34.5 µM
19 | CC(=O)NC(CCCCNC(=O)NCCCl)C(=O)NCc1ccccc1 (stereo not drawn) | – | > 100 µM | – | > 100 µM | – | > 100 µM | – | > 100 µM | – | > 100 µM | – | > 100 µM | – | > 100 µM | – | > 100 µM | – | > 100 µM | – | > 100 µM
